Data taken from a melting point compilation (Tetko et al.; mined from patent text by program, amines drawn as free bases though some values may be those of a salt).

Point of comparison: `C[C@H]1CN(C(c2ccccc2)(c2ccccc2)c2ccccc2)CCN1c1ccc(C(F)(F)F)c(Cl)n1`, melting point 210 °C. Against it:
- COc1ccc(S(=O)(=O)c2cc3c(cc2C)OC(C(=O)O)O3)cc1NC(C)=O (stereo not given) — higher, 230 °C
- CCN(CC)CCOc1ccc(Nc2ncc3c(n2)N(C)C(=O)N(c2ccccc2Br)C3)cc1 — lower, 144 °C
- OCCCSc1ccc2nccn2n1 — lower, 108 to 109 °C
- Cc1noc(CCc2c(-c3ccccc3)c(=O)[nH]c3cc(Cl)ccc23)n1 — higher, 235 to 238 °C
- CC(=O)OCC1OC(Cl)C(N=[N+]=[N-])C(OC(C)=O)C1OC1OC(COC(C)=O)C(OC(C)=O)C(OC(C)=O)C1OC(C)=O (stereo not given) — lower, 167 to 168 °C
- CCCCCCCCCCCCCCCCC1CC(Cn2cncn2)(c2ccc(Cl)cc2)N(C)O1 (stereo not given) — lower, 100 to 102 °C
- C[C@@H]1CNCc2cc3cccc(OC(F)(F)F)c3n21 — lower, 58 to 60 °C
- CC(C)NC[C@H](O)COc1ccc(Cc2nc(Br)c[nH]2)cc1 — lower, 125 to 127 °C
- CCOc1c(C)c(N2CCN(c3ccc(C)cc3)CC2)c(C)c2c1OC(C)C2 (stereo not given) — lower, 96 to 98 °C
- COC(=O)NC(=NS(=O)(=O)NC(C)C)OC(C)C — lower, 62 to 64 °C
- CCCCCC(=O)COS(=O)(=O)c1ccc(OCC)cc1 — lower, 35 to 35.5 °C
- CCO[C@H]1C(C(=O)NCc2ccc(Cl)cc2)=C(C)OC(OCC)(OCC)[C@H]1C (relative stereo) — lower, 97 to 100 °C
- COc1ccccc1C(=O)c1cccc2c1ccn2S(=O)(=O)c1ccc(C)cc1 — lower, 154 °C
- Cc1cc(N)n(-c2c(Cl)cc(Cl)cc2Cl)n1 — lower, 132 to 134 °C
- COC(=O)c1cc2c(nc1Cl)CCCCC2 — lower, 148 to 149 °C
- Cc1cc(C(=O)N2CCCC(C)C2)ccc1[N+](=O)[O-] (stereo not given) — lower, 82 to 82.8 °C
- Cc1oc(-c2ccccc2)nc1COc1cccc(/C=C/CO)c1 — lower, 118 to 119 °C
- CCCCC[C@@H](CC(=O)NO)C(=O)N[C@H](CC(C)C)C(=O)N[C@@H](C)C(N)=O — lower, 134 to 136 °C
- NCc1cc2cc(Cl)cc(-c3ccccc3)c2o1 — higher, > 225 °C
- CCCCN(CCCC)c1ccc(C=CC=Cc2ccc(C=CC3=C(C#N)C(=C(C#N)C#N)OC3(c3ccccc3)C(F)(F)F)s2)c(OC)c1 (stereo not given) — lower, 125 to 140 °C
- CCCCNC(=O)Oc1ccc2oc3ccccc3c2c1 — lower, 124 to 126 °C
- OCCOCc1csc2ccccc12 — lower, 149 to 150 °C
- CC(C)(C)OC(=O)Nc1sc(-c2cncc(F)c2)nc1F — lower, 188 to 191 °C
- S=C(NCN1CCOCC1)C(CN1CCOCC1)c1ccccn1 (stereo not given) — lower, 109 to 111 °C
- Cc1ccc(C(=O)NC2CCN(CCCCl)CC2)cc1 — lower, 150 to 152 °C
- CC(=O)OC1=C(OC(C)=O)C(=O)c2cc(Cl)ccc2C1=O — lower, 110 to 111 °C
- CCOC(=O)c1c(C(F)(F)F)nc(C(F)(F)F)c(C)c1OCC(=O)c1ccccc1 — lower, 95 to 97 °C
- NNc1cc2ccccc2cc1C(=O)O — higher, > 300 °C
- O=[N+]([O-])c1ccc(S)c(Cl)c1 — lower, 77 to 78 °C
- Cc1nc2c3c(c(C(=O)N(C)C)cc2n1C)CCC1(Cc2ccccc2C1)N3 — lower, 178 to 179 °C
- O=C(CCc1ccccc1)C(Cc1ccccc1)C(=O)CCc1ccccc1 — lower, 74 to 75 °C
- COC(=O)c1snc(-c2ccc(OC)cc2)c1N — lower, 129 to 131 °C
- CC(=O)OCC1OC(n2c(Cl)nc3c(Cl)cc(Cl)cc32)C(OC(C)=O)C1OC(C)=O (stereo not given) — lower, 165 to 167 °C
- COC(=O)[C@H](Cc1cc(C)c(OCc2cccc3nc(-c4ccccc4)oc23)c(C)c1)NC(=O)OC(C)(C)C — lower, 116 to 117 °C
- O=C(O)CCc1c(C=C2C(=O)Nc3ccc(Br)cc32)[nH]c2c1CCCC2 — higher, 286 to 289 °C
- CC(C)(C)C(=O)Nc1nc(Nc2cccc(Br)c2)c2c(n1)[nH]c1ccccc12 — higher, 287 to 288 °C
- COC(=O)c1ncc(Nc2cc(C)[nH]n2)nc1Nc1ccc(Cl)cc1 — higher, 259 to 261 °C
- COc1cc(CCBr)cc2c1OCO2 — lower, 78 to 79 °C
- COc1ccc2ccc(NC(=O)c3cccc(OC(C)=O)c3)nc2n1 — lower, 172 °C
- O=C(NC(Cc1ccc(OCc2ccccc2)cc1)C(=O)O)c1cc2ccc(-c3ccc(Cl)cc3)cc2s1 (stereo not given) — higher, 237 to 239 °C
- CC(C)(C)[Si](C)(C)OC1CCN(S(=O)(=O)c2ccc(N3CCCCC3)cc2)C1=O (stereo not given) — lower, 111 to 112 °C
- O=C(Cl)N1CCC(Oc2cc(Cl)cc(Cl)c2)C1 (stereo not given) — lower, 105 to 107 °C
- Nc1nc(Nc2ccccc2)sc1C(=O)c1c(F)cccc1F — lower, 183 to 184 °C
- CC(C)(C)c1cc(CCC(=O)ON(Cc2ccccc2)Cc2ccccc2)cc(C(C)(C)C)c1O — lower, 93 to 95.5 °C
- CCn1c(CCSC)nc(N2CCc3ccccc3CC2)c(C#N)c1=O — lower, 102 to 104 °C
- COC(=O)COc1ccc(Cl)c2c1c1c(n2Cc2ccccc2)CCCC1C(N)=O (stereo not given) — lower, 185 to 186 °C
- COc1ccc(-c2c(C)nc(N)nc2C2CCN(C(=O)c3ccccc3)CC2)cc1 — higher, 226 to 227 °C
- CCc1nc2c(N)nc3ccccc3c2n1OC — higher, 216 to 217 °C
- NC(=O)c1cc2c(c3nc(O)c(O)nc13)CCCC2 — higher, > 300 °C
